Reference: US20160102074A1, “SUBSTITUTED AMIDE COMPOUNDS” (PFIZER INC., priority 2014, published 2016)

Columns and labels:
human PCSK9 = test: PCSK9 AlphaLISA assay, PCSK9 lowering in WT7 cells; settings: WT7 cells (Huh7 stably over-expressing human PCSK9), secreted PCSK9 by AlphaLISA, overnight incubation (16-24 h), top concentration 20 μM; read-out: Cell Based PCSK9 IC50
From the text: PCSK9 Lowering in WT7 Cells
An in-vitro AlphaLISA assay (Perkin Elmer) was developed in order to quantitate the level of PCSK9 secreted into the cell culture media following compound treatment. To detect and measure PCSK9 protein a mouse monoclonal anti-human PCSK9 antibody was coupled to AlphaLISA acceptor beads by an external vendor (Perkin Elmer) and a second rabbit monoclonal anti-human PCSK9 antibody with an epitope distinct from that of the acceptor beads was biotinylated using the EZ link NHS-LC-LC-Biotin kit (Life Technologies #21338). Streptavidin coated-donor beads (Perkin Elmer) are also included in the assay mixture which then binds the biotinylated anti-PCSK9 antibody and in the presence of PCSK9 this donor complex and acceptor beads are brought into close proximity. Upon excitation of the donor beads at 680 nm singlet oxygen molecules are released that trigger an energy transfer cascade within the acceptor beads resolving as a single peak of light emitted at 615 nm. The ability of compound to modulate PCSK9 protein levels in conditioned media by AlphaLISA was assessed in the human hepatocellular carcinoma cell line Huh7, stably over-expressing human PCSK9. This cell line, termed WT7, was established by transfecting Huh7 cells with an in-house modified pcDNA 3.1 (+) Zeo expression vector (Life Technologies) containing the full-length human PCSK9 sequence (NCBI reference identifier, NM_174936.3, where coding sequence start annotated at position 363) and a c-terminal V5 and 6×-His tag. Following plasmid transfection the stable WT7 clone was identified and maintained under Zeocin selection. Compound screening was performed in 384-well plates where WT7 cells were plated at a density of 7500 cells per well in 20 μL of tissue culture media containing compound in an eleven point, 0.5 log dilution format at a high treatment concentration of 20 μM in a final volume of 0.5% DMSO. In additional to these test compound conditions each screening plate also included wells that contained 20 μM puromycin as a positive assay control defined as high percent effect, HPE, as well as wells containing media in 0.5% DMSO as a negative treatment control defined as zero percent effect, ZPE. After overnight compound incubation (16-24 h) the tissue culture media was collected and an aliquot from each sample was transferred to individual wells of a 384-well white Optiplate (Perkin Elmer). The coupled antibodies and donor beads were added to the assay plates in a buffer composed of 30 mM Tris pH 7.4, 0.02% Tween-20 and 0.02% Casein. Anti-PCSK9 acceptor beads (final concentration of 10 μg/mL) and anti-PCSK9 biotinylated antibody (final concentration of 3 nM) were added and incubated for 30 minutes at room temperature followed by the addition of the streptavidin donor beads (final concentration 40 μg/mL) for an additional 60 minutes. Additionally a standard curve was generated where AlphaLISA reagents were incubated in wells spiked with recombinant human PCSK9 diluted in tissue culture media from 5000 ng/mL to 0.6 ng/mL. Following incubation with AlphaLISA reagents plates were read on an EnVision (Perkin Elmer) plate reader at an excitation wavelength of […] and emission/detection wavelength of […]. To determine compound IC50 the data for HPEand ZPEcontrol wells were first analyzed and the mean, standard deviation and Z prime calculated for each plate. The test compound data were converted into percent effect, using the ZPE and HPE controls as 0% and 100% activity, respectively. The equation used for converting each well reading into percent effect was:
IC50 was then calculated and reported as the midpoint in the percent effect curve in molar units and the values are reported under the Cell Based PCSK9 IC50 (μM) column header within Table 2 Biological Data. […]

[1] = Human hepatocyte in vitro liver metabolism assay (HHep); assay type: in vitro ADME; settings: cryopreserved human hepatocytes, 0.5 million viable cells per mL, 37° C.
From the text: In particular, the human intestinal S9 fraction in vitro stability assay (HInt) and human hepatocyte in vitro liver metabolism assay (HHep) provide important information regarding the clearance and metabolic activation of these compounds. The human intestinal S9 fraction in vitro stability assay provides a surrogate measure of compound metabolism as it travels across the gut wall; compounds with low CLint values more likely to enter the portal vein and be exposed to the liver. Likewise, the human hepatocyte in vitro liver metabolism assay provides a surrogate measure of compound metabolism when exposed to liver; compounds with high CLint values are more likely to be metabolically activated. For compounds such as prodrugs that release an active species on metabolic activation, high CLint values in human hepatocytes are desirable. Active compounds released in this way inhibit PCSK9 and show improved atherosclerotic properties by increased exposure of the active metabolite in the liver.
Human Hepatocyte In Vitro Liver Metabolism Assay (HHep)
In order to determine the rate of metabolism leading to conversion of prodrug into active drug form, experiments utilizing human hepatocytes were performed. Hepatocytes are an ideal in vitro system to monitor hepatic metabolism since these intact cells contain all the hepatic enzymes found in vivo, including phase I enzymes (such as CYPs, aldehyde oxidases, esterases and MAOs) and phase II enzymes (such as UDP-glucuronyltransferases and sulfotransferases). The assay utilizes isolated hepatocytes from human donors incubated with the compound of interest in conditions mimicking physiological conditions where the metabolic stability of the compound is investigated. The experimental protocol is as follows. Vials of cryopreserved human hepatocytes (stored in liquid nitrogen until used for testing) were thawed in a water bath (37 to 40° C.) until nearly thawed, transferred to a conical tube, resuspended by inversion and subsequently centrifuged at 50-90 g at room temperature for 5 min. The supernatant was then discarded and the pellet loosened by gently tapping the end of the conical tube. William's E media was then added to achieve the desired final cell density (0.5 million viable cells per mL), and the hepatocytes were then resuspended in this fresh media. The viable cell count was then determined using the trypan blue exclusion method where a minimum viability of 70% was obtained. At this point, new molecular entities (NME's) were prepared for testing. In brief, the NME was diluted with DMSO such that final incubation concentration of NME was […] and final DMSO content was 0.1%. Assays were conducted in a 384-well format at 37° C. in an incubator held at 95% air to 5% CO2 at 95% relative humidity. The per-well incubation total incubation volume was 20 μL including hepatocytes and NME. The assay was performed using 7 hepatocyte plates where the plates were designated as sampling times 0, 15, 30, 60, 120 and 240 min and include hepatocytes and NME, and a no NME control plate with hepatocytes that was taken at 240 min. Two additional no hepatocyte containing control plates were prepared and subsequently sampled at 0 and 240 min, respectively, and were identical to the hepatocyte containing plates with respect to NME and media composition. The incubations were stopped using acetonitrile and prepared for analytical testing using liquid chromatography mass-spectrometry (LC/MS) detection. Each NME was optimized for LC/MS analytical conditions. A disappearance curve was generated from the sample time point analytical peak areas and compared to control plate results (control plates allow artifacts such as non-hepatocyte mediated decline (e.g., media/condition instability for the NME) to be determined). The slope of the disappearance curve was used to determine metabolic stability expressed CLint. […]

SMILES | IC50 (human PCSK9) [µM] | HHep CLint [1] [μL/min/mil]
Cn1ncc(-c2ccc(C(=O)N(c3ncccc3Cl)[C@@H]3CCCNC3)cc2F)c1-c1nn[nH]n1 [Example 3, N-(3-chloropyridin-2-yl)-3-fluoro-4-[1-methyl-5-(2H-tetrazol-5-yl)-1H-pyrazol-4-yl]-N-[(3R)-piperidin-3-yl]benzamide] | > 20 | 
CCOC(=O)O[C@@H](C)n1nnnc1-c1c(-c2ccc(C(=O)N(c3ncccc3Cl)[C@@H]3CCCNC3)cc2)cnn1C [Example 6, ethyl (S)-1-{5-[1-methyl-4-(4-{(3-chloropyridin-2-yl)[(3R)-piperidin-3-yl]carbamoyl}phenyl)-1H-pyrazol-5-yl]-1H-tetrazol-1-yl}ethyl carbonate] | > 20 | 71.2
CCOC(=O)O[C@@H](C)n1nnnc1-c1c(-c2ccc(C(=O)N(c3ncccc3C)[C@@H]3CCCNC3)cc2)cnn1C [Example 5a, ethyl (S)-1-{5-[1-methyl-4-(4-{(3-methylpyridin-2-yl)[(3R)-piperidin-3-yl]carbamoyl}phenyl)-1H-pyrazol-5-yl]-1H-tetrazol-1-yl}ethyl carbonate] | > 20 | 57.2
CCOC(=O)O[C@@H](C)n1nnnc1-c1c(-c2ccc(C(=O)N(c3ncccc3Cl)[C@@H]3CCCNC3)cc2F)cnn1C [Example 7, ethyl (S)-1-{5-[4-(4-{(3-chloropyridin-2-yl)[(3R)-piperidin-3-yl]carbamoyl}-2-fluorophenyl)-1-methyl-1H-pyrazol-5-yl]-1H-tetrazol-1-yl}ethyl carbonate] | > 20 | 97.6
CCOC(=O)O[C@@H](C)n1nnnc1-c1c(-c2ccc(C(=O)N(c3ncccc3C)[C@@H]3CCCNC3)nc2)cnn1C [Example 9, ethyl (S)-1-{5-[1-methyl-4-(6-{(3-methylpyridin-2-yl)[(3R)-piperidin-3-yl]carbamoyl}pyridin-3-yl)-1H-pyrazol-5-yl]-1H-tetrazol-1-yl}ethyl carbonate] | > 20 | 7.0
CCOC(=O)O[C@@H](C)n1nnnc1-c1c(-c2ccc(C(=O)N(c3ncccc3C)[C@@H]3CCCNC3)cc2F)cnn1C [Example 8, ethyl (S)-1-{5-[4-(4-{(3-methylpyridin-2-yl)[(3R)-piperidin-3-yl]carbamoyl}-2-fluorophenyl)-1-methyl-1H-pyrazol-5-yl]-1H-tetrazol-1-yl}ethyl carbonate] | > 20 | 51.3
CCOC(=O)O[C@H](C)n1nnnc1-c1c(-c2ccc(C(=O)N(c3ncccc3C)[C@@H]3CCCNC3)cc2)cnn1C [Example 5b, ethyl (R)-1-{5-[1-methyl-4-(4-{(3-methylpyridin-2-yl)[(3R)-piperidin-3-yl]carbamoyl}phenyl)-1H-pyrazol-5-yl]-1H-tetrazol-1-yl}ethyl carbonate] | > 20 | 85.0
CCOC(=O)O[C@H](C)n1nnnc1-c1c(-c2ccc(C(=O)N(c3ncccc3Cl)[C@@H]3CCCNC3)cc2F)cnn1C [Example 11, ethyl (R)-1-{5-[4-(4-{(3-chloropyridin-2-yl)[(3R)-piperidin-3-yl]carbamoyl}-2-fluorophenyl)-1-methyl-1H-pyrazol-5-yl]-1H-tetrazol-1-yl}ethyl carbonate] | 16.1 | >170
CCOC(=O)O[C@@H](C)n1nnnc1-c1c(-c2ccc(C(=O)N(c3ncccc3Cl)[C@@H]3CCCNC3)nc2)cnn1C [Example 10, ethyl (S)-1-{5-[4-(6-{(3-chloropyridin-2-yl)[(3R)-piperidin-3-yl]carbamoyl}pyridin-3-yl)-1-methyl-1H-pyrazol-5-yl]-1H-tetrazol-1-yl}ethyl carbonate] | > 20 | 11.8
